Target: T1, MT3 sites (Mesocricetus auratus, UniProt A0ABM2YAB8)
T1 construct: carried out on hamster brain membranes using 2-[^125I] iodomelatonin as radioligand; from tissue; host or cells: hamster brain membranes
T1 sequence (A0ABM2YAB8 1-231): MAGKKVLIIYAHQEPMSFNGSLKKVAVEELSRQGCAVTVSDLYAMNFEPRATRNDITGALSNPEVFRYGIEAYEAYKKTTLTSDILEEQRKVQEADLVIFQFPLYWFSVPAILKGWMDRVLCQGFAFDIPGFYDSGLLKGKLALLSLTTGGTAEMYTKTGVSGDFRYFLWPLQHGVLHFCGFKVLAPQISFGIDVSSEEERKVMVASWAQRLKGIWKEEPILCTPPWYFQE
Experiment: Study of binding to melatonin MT3 binding sites
Settings: hamster brain membranes, 2-[125I] iodomelatonin radioligand, 30 minutes, 4° C.
Protocol: Binding to MT3 sites is characterised by remarkably rapid association and dissociation kinetics and by tissue localisation (brain).
The experiments of binding to MT3 sites are carried out on hamster brain membranes using 2-[^125I] iodomelatonin as radioligand in accordance with the protocol described by P. Paul et al. (J. Pharmacol. Exp. Ther. 1999 290, 334). The membranes are incubated for 30 minutes with 2-[^125I] iodomelatonin at a temperature of 4° C. and at different concentrations of the compounds to be tested. Following incubation, the membranes are rapidly filtered and then washed with cold buffer using a filtration system. The radioactivity retained is measured using a scintillation counter.

Question: Which IC50 does the source give for `COc1ccc2[nH]cc(CCNC(C)=O)c2c1` [melatonin, N-acetyl-5-methoxytryptamine] here?
Answer: The IC50 was 45 nM.
